Data as given in PMC12254266, “Multicolored sequential resonance energy transfer for detection of simultaneous ligand binding at G protein-coupled receptors” (Nature Communications, 2025).
Where “and” joins values, the source holds several entries; their conditions need not be identical. Equal entries are not always repeated.

Molecular target: T1, Nluc-FFA1 (Homo sapiens, UniProt O14842)
T1 construct: expressed in transfected cells
Test: NanoBRET binding (saturation, competition, kinetics) at N terminal Nluc tagged FFA1
Settings: for Specific BRET (690/450)%: Figure 4Ci; for Specific BRET (690/450)% / Specific BRET (540/450)%: technical duplicates; for Specific BRET (540/450)%: Figure 4Cii

T1 sequence (O14842 whole entry): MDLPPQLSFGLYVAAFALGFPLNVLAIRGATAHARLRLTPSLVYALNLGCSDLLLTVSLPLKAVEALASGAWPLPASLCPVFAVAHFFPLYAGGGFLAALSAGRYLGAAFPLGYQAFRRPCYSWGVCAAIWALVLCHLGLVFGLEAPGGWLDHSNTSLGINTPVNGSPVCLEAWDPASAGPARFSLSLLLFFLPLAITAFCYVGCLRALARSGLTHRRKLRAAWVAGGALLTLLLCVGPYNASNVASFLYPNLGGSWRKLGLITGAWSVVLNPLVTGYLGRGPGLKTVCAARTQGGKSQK

'bottom' of the IC50 curve fit, Nano-BRET TUG-2591 (percentage of binding in the absence of competing ligand, tracer TUG-2591 100 nM): 160%
'bottom' of the IC50 curve fit, Nano-BRET TUG-2597 (percentage of binding in the absence of competing ligand, tracer TUG-2597 […]): -16%
pIC50 Nano-BRET TUG-2597 (tracer TUG-2597 […], NBD/Nluc): 7.2±0.03
pKi Nano-BRET TUG-2597 (using Kd TUG-2597 380 nM): 7.5±0.03
SMILES: COc1ccc(C(=O)N(CC(C)(C)C)c2cccc(C)n2)c(N2CCC(COc3cccc(C(CC(=O)O)C4CC4)c3)CC2)c1.O=C(O)C(F)(F)F (stereo not shown) [Cpd 6h, reference compound]
Specific BRET (690/450)% (log[Ligand] -5): 154.01% and 159.82% and 184.44% and 164.18% and 149.89% and 140.91%
Specific BRET (690/450)% (log[Ligand] -5.5): 149.18% and 149.96% and 186.01% and 169.50% and 140.81% and 140.26%
Specific BRET (690/450)% (log[Ligand] -6): 148.97% and 147.78% and 172.23% and 173.39% and 141.21% and 145.62%
Specific BRET (690/450)% (log[Ligand] -6.5): 146.95% and 143.16% and 174.27% and 175.78% and 147.71% and 149.19%
Specific BRET (690/450)% (log[Ligand] -7): 142.54% and 138.75% and 174.07% and 180.89% and 144.33% and 137.24%
Specific BRET (690/450)% (log[Ligand] -8): 121.15% and 120.06% and 152.10% and 144.46% and 121.71% and 120.62%
Specific BRET (690/450)% (log[Ligand] -9): 105.22% and 101.22% and 121.39% and 115.73% and 104.79% and 106.52%
Specific BRET (690/450)% (log[Ligand] -10): 100.55% and 99.45% and 103.65% and 96.35% and 96.40% and 103.60%
Specific BRET (540/450)% (log[Ligand] -7): 19.25% and 26.02% and 25.79% and 30.80% and 33.39% and 36.04%
Specific BRET (540/450)% (log[Ligand] -8): 119.18% and 117.93% and 79.82% and 76.64% and 93.10% and 100.29%
Specific BRET (540/450)% (log[Ligand] -9): 109.78% and 127.71% and 86.42% and 90.20% and 105.18% and 118.46%
Specific BRET (540/450)% (log[Ligand] -10): 94.36% and 105.64% and 98.39% and 101.61% and 82.28% and 117.72%
